These results are taken from ChEMBL document CHEMBL5291721, “A preclinical secondary pharmacology resource illuminates target-adverse drug reaction associations of marketed drugs” (Nat Commun, 2023).

Molecules are shown by their SMILES. Bounds are passed on as bounds.

Some targets named below: D(1A) dopamine receptor (Homo sapiens, UniProt P21728); Mu-type opioid receptor (Homo sapiens, UniProt P35372); Histamine H3 receptor (Homo sapiens, UniProt Q9Y5N1).
Experiment [1] addresses Sodium-dependent dopamine transporter (Homo sapiens, UniProt Q01959).
Experiment [2] addresses T1, Amine oxidase [flavin-containing] A (Homo sapiens, UniProt P21397).
T1 sequence (P21397 whole entry): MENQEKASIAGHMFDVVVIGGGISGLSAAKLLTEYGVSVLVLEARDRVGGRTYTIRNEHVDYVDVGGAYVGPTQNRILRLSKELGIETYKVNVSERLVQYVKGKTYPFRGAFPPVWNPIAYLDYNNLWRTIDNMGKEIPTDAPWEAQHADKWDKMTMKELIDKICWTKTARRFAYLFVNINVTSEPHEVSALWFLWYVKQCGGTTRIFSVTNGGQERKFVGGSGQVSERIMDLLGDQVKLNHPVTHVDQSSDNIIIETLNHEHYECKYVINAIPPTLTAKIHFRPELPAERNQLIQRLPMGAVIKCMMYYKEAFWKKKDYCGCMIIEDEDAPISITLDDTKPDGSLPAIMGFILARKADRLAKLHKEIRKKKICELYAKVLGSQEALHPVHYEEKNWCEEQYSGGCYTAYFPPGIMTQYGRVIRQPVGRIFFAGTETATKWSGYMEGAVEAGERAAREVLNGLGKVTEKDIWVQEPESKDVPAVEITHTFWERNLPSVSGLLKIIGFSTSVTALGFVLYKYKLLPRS
The class given is functional.

Experiment [3] deals with T2, Alpha-1A adrenergic receptor (Homo sapiens, UniProt P35348).
T2 sequence (P35348 whole entry): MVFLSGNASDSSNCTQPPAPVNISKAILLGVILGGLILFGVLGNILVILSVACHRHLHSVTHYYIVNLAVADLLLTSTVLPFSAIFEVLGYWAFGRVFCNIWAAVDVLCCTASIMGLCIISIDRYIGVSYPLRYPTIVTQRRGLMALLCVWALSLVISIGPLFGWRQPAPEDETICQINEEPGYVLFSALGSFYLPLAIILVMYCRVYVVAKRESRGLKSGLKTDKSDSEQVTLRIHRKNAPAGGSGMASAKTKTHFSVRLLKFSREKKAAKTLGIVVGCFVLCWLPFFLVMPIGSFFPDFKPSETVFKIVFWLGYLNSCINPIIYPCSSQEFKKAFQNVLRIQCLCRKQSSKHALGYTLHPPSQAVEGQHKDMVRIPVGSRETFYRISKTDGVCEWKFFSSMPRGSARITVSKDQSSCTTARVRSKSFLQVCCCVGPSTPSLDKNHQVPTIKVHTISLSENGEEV
The class given is functional, cell-based.

The next experiment deals with T3, Thromboxane A2 receptor (Homo sapiens, UniProt P21731).
T3 sequence (P21731 whole entry): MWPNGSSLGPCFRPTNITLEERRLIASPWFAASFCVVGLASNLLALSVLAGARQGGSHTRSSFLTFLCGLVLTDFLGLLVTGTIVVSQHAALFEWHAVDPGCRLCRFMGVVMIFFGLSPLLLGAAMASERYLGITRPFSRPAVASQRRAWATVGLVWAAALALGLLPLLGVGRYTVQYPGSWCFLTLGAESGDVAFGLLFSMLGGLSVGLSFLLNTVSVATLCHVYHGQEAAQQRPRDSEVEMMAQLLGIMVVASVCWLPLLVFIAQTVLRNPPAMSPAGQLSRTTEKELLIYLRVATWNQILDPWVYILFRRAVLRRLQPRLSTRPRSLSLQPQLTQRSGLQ
The class given is functional, cell-based.

Experiment [4] addresses T4, 5-hydroxytryptamine receptor 1A (Homo sapiens, UniProt P08908).
T4 sequence (P08908 whole entry): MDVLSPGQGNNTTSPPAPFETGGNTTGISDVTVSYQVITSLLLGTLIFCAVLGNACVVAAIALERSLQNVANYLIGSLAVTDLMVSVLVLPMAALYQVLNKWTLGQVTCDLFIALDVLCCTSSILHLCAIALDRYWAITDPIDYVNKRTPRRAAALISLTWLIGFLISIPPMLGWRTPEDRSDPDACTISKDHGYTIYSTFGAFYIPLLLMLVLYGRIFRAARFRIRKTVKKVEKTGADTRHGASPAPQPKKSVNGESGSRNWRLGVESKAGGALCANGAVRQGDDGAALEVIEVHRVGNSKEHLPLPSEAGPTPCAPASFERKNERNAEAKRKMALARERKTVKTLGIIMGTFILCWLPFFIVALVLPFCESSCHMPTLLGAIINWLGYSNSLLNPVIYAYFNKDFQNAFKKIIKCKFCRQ

The target of experiment [5] is T2, Alpha-1A adrenergic receptor. It counts as functional, cell-based. The source holds these as a separate data set.
For another experiment, the target named is Acetylcholinesterase (Homo sapiens, UniProt P22303). The class given is functional.
Acetylcholinesterase, sequence (P22303 whole entry): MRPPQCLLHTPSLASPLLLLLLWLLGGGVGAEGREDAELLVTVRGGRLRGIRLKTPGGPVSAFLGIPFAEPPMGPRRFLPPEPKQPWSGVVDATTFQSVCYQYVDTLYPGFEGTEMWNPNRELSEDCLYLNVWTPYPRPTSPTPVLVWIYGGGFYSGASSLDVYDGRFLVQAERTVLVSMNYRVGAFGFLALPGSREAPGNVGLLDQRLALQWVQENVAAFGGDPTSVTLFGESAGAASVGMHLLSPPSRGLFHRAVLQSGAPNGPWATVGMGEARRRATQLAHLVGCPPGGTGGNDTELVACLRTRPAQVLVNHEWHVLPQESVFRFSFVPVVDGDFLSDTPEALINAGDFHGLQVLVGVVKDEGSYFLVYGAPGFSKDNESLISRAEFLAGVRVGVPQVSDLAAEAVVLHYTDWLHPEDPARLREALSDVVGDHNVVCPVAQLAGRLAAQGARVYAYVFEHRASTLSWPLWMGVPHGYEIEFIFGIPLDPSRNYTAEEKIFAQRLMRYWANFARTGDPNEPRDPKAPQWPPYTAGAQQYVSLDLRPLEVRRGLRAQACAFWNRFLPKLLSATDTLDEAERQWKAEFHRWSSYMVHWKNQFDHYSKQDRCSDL
Experiment [6] concerns the target Sodium-dependent noradrenaline transporter (Homo sapiens, UniProt P23975).
Another experiment has as its target T5, Estrogen receptor (Homo sapiens, UniProt P03372).
T5 sequence (P03372 whole entry): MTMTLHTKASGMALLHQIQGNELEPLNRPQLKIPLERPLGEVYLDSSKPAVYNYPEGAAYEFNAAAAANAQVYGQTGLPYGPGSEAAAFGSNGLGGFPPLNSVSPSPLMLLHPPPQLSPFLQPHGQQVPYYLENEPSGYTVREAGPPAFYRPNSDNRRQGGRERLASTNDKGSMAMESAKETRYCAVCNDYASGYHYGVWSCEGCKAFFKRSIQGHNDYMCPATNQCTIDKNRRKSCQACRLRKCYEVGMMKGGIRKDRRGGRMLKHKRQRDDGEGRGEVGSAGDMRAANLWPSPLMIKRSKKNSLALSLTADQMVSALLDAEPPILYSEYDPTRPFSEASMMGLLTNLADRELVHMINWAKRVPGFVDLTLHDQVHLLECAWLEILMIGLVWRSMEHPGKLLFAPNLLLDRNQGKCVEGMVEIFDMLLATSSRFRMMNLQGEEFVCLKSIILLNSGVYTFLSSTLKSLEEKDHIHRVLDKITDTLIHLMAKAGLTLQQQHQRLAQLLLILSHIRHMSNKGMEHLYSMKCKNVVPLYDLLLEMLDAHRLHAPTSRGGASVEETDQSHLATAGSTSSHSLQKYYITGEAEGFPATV

Experiment [7] concerns the target Prostaglandin G/H synthase 1 (Homo sapiens, UniProt P23219). It counts as functional.
Further: assay procedure not described here.

Sodium-dependent noradrenaline transporter, sequence (P23975 whole entry): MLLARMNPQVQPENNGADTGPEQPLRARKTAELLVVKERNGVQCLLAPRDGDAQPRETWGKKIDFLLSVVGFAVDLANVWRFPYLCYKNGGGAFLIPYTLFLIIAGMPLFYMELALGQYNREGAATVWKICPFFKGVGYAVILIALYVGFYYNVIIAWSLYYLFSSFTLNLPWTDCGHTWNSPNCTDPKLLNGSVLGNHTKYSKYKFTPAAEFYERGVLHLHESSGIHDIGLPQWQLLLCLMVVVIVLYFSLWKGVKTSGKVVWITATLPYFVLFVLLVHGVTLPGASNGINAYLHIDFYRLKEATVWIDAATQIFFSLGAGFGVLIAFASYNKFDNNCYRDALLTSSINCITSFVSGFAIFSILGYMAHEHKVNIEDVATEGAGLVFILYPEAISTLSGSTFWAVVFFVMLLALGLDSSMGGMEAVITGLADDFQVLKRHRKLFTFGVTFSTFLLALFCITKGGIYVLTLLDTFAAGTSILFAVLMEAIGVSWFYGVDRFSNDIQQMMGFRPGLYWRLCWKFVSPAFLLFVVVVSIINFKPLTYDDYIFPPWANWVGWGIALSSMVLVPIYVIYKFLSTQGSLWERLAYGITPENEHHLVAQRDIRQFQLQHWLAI
Histamine H3 receptor, sequence (Q9Y5N1 whole entry): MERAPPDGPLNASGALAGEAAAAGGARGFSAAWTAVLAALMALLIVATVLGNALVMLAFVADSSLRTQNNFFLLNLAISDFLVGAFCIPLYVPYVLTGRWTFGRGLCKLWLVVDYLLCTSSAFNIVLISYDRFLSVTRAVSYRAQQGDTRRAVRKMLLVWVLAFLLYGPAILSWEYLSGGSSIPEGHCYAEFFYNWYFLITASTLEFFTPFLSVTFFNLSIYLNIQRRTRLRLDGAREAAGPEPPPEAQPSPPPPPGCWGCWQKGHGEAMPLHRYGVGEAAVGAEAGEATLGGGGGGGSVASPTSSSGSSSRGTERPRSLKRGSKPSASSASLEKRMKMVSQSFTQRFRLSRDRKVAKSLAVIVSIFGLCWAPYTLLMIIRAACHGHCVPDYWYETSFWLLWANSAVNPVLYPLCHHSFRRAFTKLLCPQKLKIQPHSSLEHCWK
Sodium-dependent dopamine transporter, sequence (Q01959 whole entry): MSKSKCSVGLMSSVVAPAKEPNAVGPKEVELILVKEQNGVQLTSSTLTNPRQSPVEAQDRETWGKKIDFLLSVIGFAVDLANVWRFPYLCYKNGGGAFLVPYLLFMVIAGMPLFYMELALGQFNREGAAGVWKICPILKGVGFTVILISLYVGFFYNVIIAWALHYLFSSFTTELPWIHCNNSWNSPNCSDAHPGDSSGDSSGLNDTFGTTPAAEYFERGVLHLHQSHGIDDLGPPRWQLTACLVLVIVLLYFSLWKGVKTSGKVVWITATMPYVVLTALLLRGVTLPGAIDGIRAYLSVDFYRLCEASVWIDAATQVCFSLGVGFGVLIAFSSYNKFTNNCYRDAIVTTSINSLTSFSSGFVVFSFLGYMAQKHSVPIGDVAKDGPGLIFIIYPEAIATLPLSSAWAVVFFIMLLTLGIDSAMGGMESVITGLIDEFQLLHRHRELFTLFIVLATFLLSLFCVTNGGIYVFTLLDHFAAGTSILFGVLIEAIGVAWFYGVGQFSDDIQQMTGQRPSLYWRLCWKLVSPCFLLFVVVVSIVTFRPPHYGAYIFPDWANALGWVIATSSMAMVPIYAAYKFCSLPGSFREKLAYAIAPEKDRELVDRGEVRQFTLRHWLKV
Mu-type opioid receptor, sequence (P35372 whole entry): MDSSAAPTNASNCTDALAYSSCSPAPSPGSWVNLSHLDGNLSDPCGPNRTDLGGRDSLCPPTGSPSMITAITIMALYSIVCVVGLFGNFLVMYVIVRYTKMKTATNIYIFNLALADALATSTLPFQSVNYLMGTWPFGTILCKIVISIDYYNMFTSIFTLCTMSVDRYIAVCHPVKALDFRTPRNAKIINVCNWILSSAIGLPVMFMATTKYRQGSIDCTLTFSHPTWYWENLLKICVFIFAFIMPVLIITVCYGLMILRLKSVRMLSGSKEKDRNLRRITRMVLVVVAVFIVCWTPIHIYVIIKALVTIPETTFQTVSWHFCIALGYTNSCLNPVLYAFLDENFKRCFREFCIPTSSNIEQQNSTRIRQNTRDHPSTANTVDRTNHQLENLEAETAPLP
Prostaglandin G/H synthase 1, sequence (P23219 whole entry): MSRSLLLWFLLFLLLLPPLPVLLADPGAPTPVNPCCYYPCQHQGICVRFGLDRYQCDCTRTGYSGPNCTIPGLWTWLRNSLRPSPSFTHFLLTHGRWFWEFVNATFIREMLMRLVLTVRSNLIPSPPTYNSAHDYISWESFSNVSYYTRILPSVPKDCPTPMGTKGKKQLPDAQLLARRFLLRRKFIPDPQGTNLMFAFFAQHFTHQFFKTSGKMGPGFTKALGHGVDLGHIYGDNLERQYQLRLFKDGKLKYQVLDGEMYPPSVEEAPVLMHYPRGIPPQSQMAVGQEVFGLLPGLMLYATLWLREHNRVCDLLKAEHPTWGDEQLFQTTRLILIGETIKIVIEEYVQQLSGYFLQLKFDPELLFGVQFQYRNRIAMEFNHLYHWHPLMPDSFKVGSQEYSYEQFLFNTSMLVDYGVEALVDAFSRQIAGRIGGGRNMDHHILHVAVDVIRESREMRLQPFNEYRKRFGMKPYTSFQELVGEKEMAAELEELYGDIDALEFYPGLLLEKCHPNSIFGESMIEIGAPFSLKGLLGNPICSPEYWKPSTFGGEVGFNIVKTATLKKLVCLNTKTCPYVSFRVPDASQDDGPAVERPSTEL
D(1A) dopamine receptor, sequence (P21728 whole entry): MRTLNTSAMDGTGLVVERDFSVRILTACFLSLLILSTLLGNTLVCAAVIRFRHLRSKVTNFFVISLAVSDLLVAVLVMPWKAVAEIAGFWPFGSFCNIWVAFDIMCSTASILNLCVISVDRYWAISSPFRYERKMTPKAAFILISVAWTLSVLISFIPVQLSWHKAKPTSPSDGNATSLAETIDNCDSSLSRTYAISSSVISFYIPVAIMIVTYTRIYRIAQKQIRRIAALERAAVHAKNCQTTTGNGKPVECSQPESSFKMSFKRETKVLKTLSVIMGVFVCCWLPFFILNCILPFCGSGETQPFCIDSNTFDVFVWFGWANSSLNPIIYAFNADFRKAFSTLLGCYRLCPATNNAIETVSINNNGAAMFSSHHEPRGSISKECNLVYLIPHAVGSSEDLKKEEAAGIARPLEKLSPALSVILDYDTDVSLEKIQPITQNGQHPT

Consider `CNC(=O)c1cnn(-c2nc(N)c3ncn([C@@H]4O[C@H](CO)[C@@H](O)[C@H]4O)c3n2)c1` [REGADENOSON ANHYDROUS], for which the AC50 (in [1]; in experiment [2]; at D(1A) dopamine receptor; in experiment [3]; on Thromboxane A2 receptor; in experiment [4]) was greater than 30 µM each time. Besides, the AC50 at Mu-type opioid receptor is greater than 30 µM; in experiment [5], 28.2 µM; on Acetylcholinesterase it was greater than 30 µM; on Histamine H3 receptor it was greater than 30 µM; in [6], greater than 30 µM; on Estrogen receptor, greater than 30 µM. This molecule came in with an AC50 in experiment [7] greater than 30 µM.

`COc1c(OCCCN2CCOCC2)ccc2c1N=C(NC(=O)c1cnc(N)nc1)N1CCN=C21` [COPANLISIB]: the AC50 (in experiment [1]; in experiment [2]; on D(1A) dopamine receptor; in [3]; at Thromboxane A2 receptor; in [4]) was greater than 30 µM in each case. Also, the concentration at half-maximal activity (AC50) (on Mu-type opioid receptor; in experiment [5]; at Acetylcholinesterase; at Histamine H3 receptor; in [6]; on Estrogen receptor) was greater than 30 µM each time. Besides, in [7], the AC50 was greater than 30 µM.

On to `CC(=O)OCC(=O)[C@@]1(O)CC[C@H]2[C@@H]3C[C@H](C)C4=CC(=O)C=C[C@]4(C)[C@H]3[C@@H](O)C[C@@]21C` [METHYLPREDNISOLONE ACETATE], for which the AC50 (in experiment [1]; in experiment [2]; on D(1A) dopamine receptor; in [3]; at Thromboxane A2 receptor; in experiment [4]) was greater than 30 µM each time. Also, the AC50 (at Mu-type opioid receptor; in experiment [5]; on Acetylcholinesterase; at Histamine H3 receptor; in [6]; at Estrogen receptor) was greater than 30 µM in each case. Besides, the AC50 in experiment [7] is greater than 30 µM.

For the molecule `CC(=O)O[C@]1(C(C)=O)CC[C@H]2[C@@H]3CCC4=CC(=O)CCC4=C3[C@@H](c3ccc(N(C)C)cc3)C[C@@]21C` [ULIPRISTAL ACETATE], the concentration at half-maximal activity (AC50) (in experiment [1]; in experiment [2]; at D(1A) dopamine receptor; in [3]; at Thromboxane A2 receptor; in experiment [4]) was greater than 30 µM throughout. Moreover, the AC50 on Mu-type opioid receptor is 22.5 µM; in experiment [5], greater than 30 µM; on Acetylcholinesterase, greater than 30 µM; at Histamine H3 receptor, greater than 30 µM; in experiment [6] it was greater than 30 µM; at Estrogen receptor, 9.29 µM. In [7], this molecule came in with an AC50 greater than 30 µM.

Take `COc1cccc2c1C(=O)c1c(O)c3c(c(O)c1C2=O)C[C@@](O)(C(=O)CO)C[C@@H]3O[C@H]1C[C@H](N)[C@@H](O)[C@H](C)O1` [EPIRUBICIN]: the AC50 was greater than 30 µM in [1]; greater than 30 µM in [2]; greater than 30 µM on D(1A) dopamine receptor; greater than 1 µM in [3]; 8.17 µM at Thromboxane A2 receptor; greater than 30 µM in experiment [4]. The AC50 on Mu-type opioid receptor is greater than 30 µM; in experiment [5] it was 8.86 µM; at Acetylcholinesterase it was 17 µM; at Histamine H3 receptor it was greater than 30 µM; in experiment [6], greater than 30 µM; on Estrogen receptor, greater than 30 µM. For the same molecule, in experiment [7], the AC50 is greater than 30 µM.

`CC(C)(C)NCC(O)COc1ccccc1C#N` (configuration not stated) [BUNITROLOL]: the AC50 in experiment [1] is greater than 30 µM; in experiment [2], 10.4 µM; on D(1A) dopamine receptor it was greater than 30 µM; in [3], greater than 30 µM; on Thromboxane A2 receptor it was greater than 30 µM; in [4] it was 0.0086 µM. Also, the AC50 (at Mu-type opioid receptor; in experiment [5]; at Acetylcholinesterase; on Histamine H3 receptor; in experiment [6]; at Estrogen receptor) was greater than 30 µM throughout. This molecule yielded an AC50 in [7] greater than 30 µM.

With `N=C(N)NC(=O)c1nc(Cl)c(N)nc1N` [AMILORIDE], the AC50 in experiment [1] was greater than 30 µM; in [2], 5.24 µM; on D(1A) dopamine receptor it was greater than 30 µM; in [3] it was greater than 30 µM; at Thromboxane A2 receptor it was greater than 30 µM; in experiment [4], 11.1 µM. Besides, the AC50 (on Mu-type opioid receptor; in [5]; on Acetylcholinesterase; at Histamine H3 receptor; in [6]; on Estrogen receptor) was greater than 30 µM throughout. The AC50 in experiment [7] is greater than 30 µM.

In the case of `COc1cccc2c1C(=O)c1c(O)c3c(c(O)c1C2=O)C[C@@](O)(C(=O)CO)C[C@@H]3O[C@H]1C[C@H](N)[C@H](O)[C@H](C)O1` [DOXORUBICIN], the AC50 in [1] was greater than 30 µM; in experiment [2], greater than 30 µM; on D(1A) dopamine receptor, greater than 30 µM; in [3], greater than 30 µM; on Thromboxane A2 receptor, 24.7 µM; in experiment [4], greater than 30 µM. Besides, the AC50 (on Mu-type opioid receptor; in experiment [5]; at Acetylcholinesterase; on Histamine H3 receptor; in experiment [6]; on Estrogen receptor) was greater than 30 µM in each case. In addition, the AC50 in experiment [7] was greater than 30 µM.

On to `Cn1c(CCCC(=O)O)nc2cc(N(CCCl)CCCl)ccc21` [BENDAMUSTINE], for which the AC50 (in experiment [1]; in experiment [2]; at D(1A) dopamine receptor; in experiment [3]; on Thromboxane A2 receptor; in experiment [4]) was greater than 30 µM in each case. Further, the AC50 (at Mu-type opioid receptor; in experiment [5]; at Acetylcholinesterase; at Histamine H3 receptor; in experiment [6]; at Estrogen receptor) was greater than 30 µM each time. The molecule also registered an AC50 in experiment [7] greater than 30 µM.
